Data: patent US20050215529A1, “Method of treating oxidative stress-associated conditions with isopentenyl diphosphate” (THE REGENTS OF THE UNIVERSITY OF MICHIGAN, priority 2004, published 2005)
pIC50: −log10 of the molar value. Values joined by “and” are separate entries in the source; they are usually repeats but may differ in a detail not shown here. Equal entries are not always repeated. Where two headings read alike, the source gives them in different places.

What was measured:
[1] = tested on: human fibroblastoid M1 cells; assay: Comet assay, protection against H2O2-induced DNA damage; format: cell-based; settings: for IC50: read-out: IC50 (pM), DNA damage protection; for pIC50: read-out: IC50, DNA damage protection
Description: (§1) A single-cell gel electrophoresis (SCGE) assay, known as the “Comer” assay was performed to detect/quantify DNA damage by identifying DNA-strand breakage in individual cells, for example. The assay was performed using a kit commercially-available from Trevigen, Inc., of Gaithersburg, Md., as “CometAssay™.” See P. J. McCarthy et al. (1997) Mutagenesis 12:209-214; A. R. Collins et al. (2001) Biochem. Soc. Trans. 29:337-341. Sub-confluent cells were washed with phosphate buffered saline (PBS) and detached from the tissue culture flasks using a 0.05% trypsin solution. After centrifugation, the cells were washed and re-suspended in serum-free DMEM medium. The cells were divided into Eppendorf tubes (1.5 ml), and centrifuged at 2500 rotations per minutes (rpm) for ten minutes. Signal-modulating agents were added and samples were kept in a 37° C. incubator for thirty minutes. In some experiments, the cells were pre-incubated with various inhibitors for the indicated times at 37° C. At the end of the incubation period with signal-modulating chemicals, the cells were washed with PBS and treated with 100 μM H2O2 in 0.5 ml PBS on ice for twenty minutes. Following the hydrogen peroxide treatment, the cells were immediately microfuged for fifteen seconds. The cells were twice washed with cold PBS, and re-suspended at 1.0×10^5 cells/ml in ice-cold PBS. Five microliter cell suspension were each mixed with 50 μl molten LMAgarose and, thereafter, the mixtures were placed onto slides (CometSlide™).
(§2) The slides were placed at 4° C. in the dark for ten minutes and subsequently immersed in pre-chilled Lysis Solution at 4° C. for an additional thirty minutes. Following this incubation, excess buffer was tapped off from the slides. Subsequently, the slides were placed in a 50 ml Coplin jar containing alkali buffer for thirty minutes at room temperature in the dark and then immersed in 50 ml of TBE buffer for five minutes. The slides were then placed flat onto a gel tray submerged in TBE buffer in a horizontal electrophoresis apparatus, and aligned equidistant from the electrodes. Electrophoresis was performed at one volt per centimeter (cm) for ten minutes. Following this electrophoresis, the samples were fixed in 100% methanol for five minutes and 100% ethanol for five minutes. After drying, 50 μl of diluted SYBR Green Concentrate was added onto each circle of agarose. Comet tail fluorescence intensity was quantified with a Diagnostic Instruments digitized camera, mounted on a Nikon Eclipse E400 microscope, using Scion Image software. Quantification of comet fluorescence was performed as described in P. J. McCarthy et al. (1997) Mutagenesis 12:209-214. Each data point was derived from 30 to 100 individual cells. The data are shown either in arbitrary fluorescent units, or as % DNA damage protection (i.e., the percent decrement in tail fluorescence intensity with test reagent, relative to the intensity recorded in cells treated with hydrogen peroxide only)±S.E.M.
A dose response analysis of DNA damage protection also was performed to determine the efficacy of various doses of isopentenyl diphosphate versus 2-chloroadenosine. The analysis was carried out by pre-incubating human fibroblastoid M1 cells for thirty minutes with different concentrations of isopentenyl diphosphate or 2-chloroadenosine prior to incubating the cells with 100 μM H2O2 to induce oxidative stress. Following induction of oxidative stress, DNA damage was quantified using the Comet assay, as described above.

[2] = tested on: human fibroblastoid M1 cells; assay: Comet assay, inhibition of 2CA- or IPP-mediated DNA damage protection by antagonists/inhibitors; format: cell-based; design: key to Mechanism of Signal Transduction: PKA / Mechanism of Signal Transduction: Mevalonate Pathway / Mechanism of Signal Transduction: GGT / Mechanism of Signal Transduction: FT / Mechanism of Signal Transduction: Proteasome: “+” indicates a dependence; “−” indicates independence
Description: as §1, §2
Specifically, […], human fibroblastoid M1 cells were incubated for thirty minutes in either H-89 or 8-bromoguanosine-3′,5′-cyclic monophosphate (8-Br-cGMP) (B), or for fifteen minutes in SNAP, at different concentrations. […] Following induction of oxidative stress, DNA damage was quantified using the Comet assay, as described above. Shown in FIGS. 14-16 are graphs illustrating the DNA damage protection as function of the molar concentration of H-89 (FIG. 14), 8-Br-cGMP (FIG. 15), and SNAP (FIG. 16).
In yet another test, human fibroblastoid M1 cells were pre-incubated for fifteen minutes with different concentrations of the A2bAR antagonist, enprofylline (Enpro).

[3] = tested on: human fibroblastoid M1 cells; assay: Measurement of ROS (DCFH-DA fluorescence); format: cell-based; settings: for H2O2-induced ROS formation: 10 μM agent, 100 μM H2O2, FIG. 4
Description: The presence of reactive oxidative species was measured using commercially-available equipment in accordance with the manufacturer's instructions. Specifically, sub-confluent cells were detached from flasks using 0.05% trypsin and 5×10^3 human fibroblastoid M1 cells per well were seeded into 96-well plates (Falcon 35-3072). After an overnight culture, the cells were twice washed with DMEM-phenol red-free medium. The cells were subsequently treated with various concentrations of signal-modulating agents in the presence of 10 micromolar (μM) DCFH-DA in 100 microliters (μl) DMEM-phenol red-free medium at 37° C. for 30 minutes. This medium was replaced by a 100 μl DMEM-phenol red-free medium containing DCFH-DA and either 50 mU/ml GO, or 100 μM H2O2, and the cultures were subsequently incubated at 37° C. for 30 minutes. After thirty minutes incubation, the plates were read by CytoFluor™ 2300 (Millipore) at an excitation wavelength (Ex) of 480 nm and emission wavelength (Em) of 520 nm, or by Fusion-Alpha HT system (PerkinElmer Life Sciences, Boston, Mass.) at Ex 485 nm and Em 530 nm.
ROS levels were quantified using the Fusion-Alpha HT system, as described above.
To verify the efficiency of that pathway, DCFH-DA-loaded human fibroblastoid M1 cells were incubated with 10 μM 2-chloroadenosine for thirty minutes followed by incubation with 100 μM H2O2 for twenty minutes to induce oxidative stress. […] ROS levels were quantified using the CytoFluor™ 2300 system, as described above.

[4] = tested on: A2aAR-transfected HEK293 cells; assay: Comet assay in A2aAR-transfected HEK293 cells; format: cell-based; settings: Homo sapiens, 100 μM H2O2, read-out: IC50, DNA damage protection
Description: (§3) A single-cell gel electrophoresis (SCGE) assay, known as the “Comer” assay was performed to detect/quantify DNA damage by identifying DNA-strand breakage in individual cells, for example. The assay was performed using a kit commercially-available from Trevigen, Inc., of Gaithersburg, Md., as “CometAssay™.” See P. J. McCarthy et al. (1997) Mutagenesis 12:209-214; A. R. Collins et al. (2001) Biochem. Soc. Trans. 29:337-341. Sub-confluent cells were washed with phosphate buffered saline (PBS) and detached from the tissue culture flasks using a 0.05% trypsin solution. After centrifugation, the cells were washed and re-suspended in serum-free DMEM medium. […]
(§4) The slides were placed at 4° C. in the dark for ten minutes and subsequently immersed in pre-chilled Lysis Solution at 4° C. for an additional thirty minutes. […] Comet tail fluorescence intensity was quantified with a Diagnostic Instruments digitized camera, mounted on a Nikon Eclipse E400 microscope, using Scion Image software. Quantification of comet fluorescence was performed as described in P. J. McCarthy et al. (1997) Mutagenesis 12:209-214. […] The data are shown either in arbitrary fluorescent units, or as % DNA damage protection (i.e., the percent decrement in tail fluorescence intensity with test reagent, relative to the intensity recorded in cells treated with hydrogen peroxide only)±S.E.M. […]

[5] = tested on: A2bAR-transfected HEK293 cells; assay: Comet assay in A2bAR-transfected HEK293 cells; format: cell-based; settings: Homo sapiens, 100 μM H2O2, read-out: IC50, DNA damage protection
Description: as §3, §4

[6] = tested on: A1AR-transfected HEK293 cells; assay: Comet assay in A1AR-transfected HEK293 cells; format: cell-based, human
Description: A single-cell gel electrophoresis (SCGE) assay, known as the “Comer” assay was performed to detect/quantify DNA damage by identifying DNA-strand breakage in individual cells, for example. The assay was performed using a kit commercially-available from Trevigen, Inc., of Gaithersburg, Md., as “CometAssay™.” See P. J. McCarthy et al. (1997) Mutagenesis 12:209-214; A. R. Collins et al. (2001) Biochem. Soc. Trans. 29:337-341. Sub-confluent cells were washed with phosphate buffered saline (PBS) and detached from the tissue culture flasks using a 0.05% trypsin solution. After centrifugation, the cells were washed and re-suspended in serum-free DMEM medium. The cells were divided into Eppendorf tubes (1.5 ml), and centrifuged at 2500 rotations per minutes (rpm) for ten minutes. Signal-modulating agents were added and samples were kept in a 37° C. incubator for thirty minutes. In some experiments, the cells were pre-incubated with various inhibitors for the indicated times at 37° C. At the end of the incubation period with signal-modulating chemicals, the cells were washed with PBS and treated with 100 μM H2O2 in 0.5 ml PBS on ice for twenty minutes. Following the hydrogen peroxide treatment, the cells were immediately microfuged for fifteen seconds. The cells were twice washed with cold PBS, and re-suspended at 1.0×10^5 cells/ml in ice-cold PBS. […]
as §4

[7] = tested on: human fibroblastoid M1 cells; assay: Measurement of cAMP levels (EIA kit); format: cell-based; settings: 10 μM agent, in presence of RO20-1724; FIG. 18
Description: Cyclic AMP levels were measured using a kit that is commercially-available from Amersham Biosciences of Piscataway, N.J., under the name “EIA Kit” (Cat. No. RPN225). Specifically, human fibroblastoid M1 cells were cultured overnight in 6-well tissue culture plates, 2×10^5 cells per well. Before stimulation, the cells were washed once with serum-free DMEM medium and incubated in 37° C. with 0.2 millimolar (mM) RO20-1724, a phosphodiesterase inhibitor, for fifteen minutes. Following this incubation period, 10 μM of either 2-chloroadenosine or isopentenyl diphosphate were added to each cell culture, and the cells cultures were thereafter maintained at 37° C. for the indicated time in the presence of phosphodiesterase inhibitor (RO20-1724). Determination of cAMP levels was performed with the EIA Kit in accordance with its manufacturer's instructions.
In another test, human fibroblastoid M1 cells also were stimulated with 10 μM 2-chloroadenosine or isopentenyl diphosphate, and cAMP levels were quantified.

[8] = tested on: murine L-cell fibroblasts, human cells of lymphoid, fibroblastoid, myeloid, or neuronal lineages; assay: Antioxidative signaling in other cell lineages and species (data not shown); format: cell-based
[9] = tested on: p53-deficient cell lines HL60 and K562 and the nucleotide excision repair-deficient line XPA; assay: DNA damage protection in p53-deficient and nucleotide excision repair-deficient lines (data not shown); format: cell-based
[10] = dependence of DNA damage protection signaling

Nc1nc(Cl)nc2c1ncn2[C@@H]1O[C@H](CO)[C@@H](O)[C@H]1O [2CA, 2-chloroadenosine]
H2O2-mediated DNA damage ([1]; 10 μM agent, 100 μM H2O2 for twenty minutes, FIG. 5): prevented H2O2-mediated DNA damage | IC50 ([1]; Homo sapiens, AR agonists and isoprenyls, M1 cells, 100 μM H2O2, Comet assay): 2040 pM | pIC50 ([1]; Homo sapiens, M1 cells pre-incubated thirty minutes, then 100 μM H2O2, FIGS. 6 and 7): 8.69 | triggering of DNA damage protection ([1]; M1 cells, various concentrations, 100 μM H2O2): triggered DNA damage protection | Mechanism of Signal Transduction: FT [2, 10]: − | Mechanism of Signal Transduction: GGT [2, 10]: − | Mechanism of Signal Transduction: Mevalonate Pathway [2, 10]: − | Mechanism of Signal Transduction: PKA [2, 10]: + | Mechanism of Signal Transduction: Proteasome [2, 10]: − | H2O2-induced ROS formation [3]: equivalent inhibition of H2O2-induced ROS formation | pIC50 [4]: 6.85 | pIC50 [5]: 6.92 | DNA damage protection response ([6]; A1AR-transfected HEK293 cells, 100 μM H2O2): failed to transduce the antioxidative signal | c[AMP]i over time [7]: triggered an increase | response to antioxidative signaling ([8]; data not shown): all could respond | DNA damage protection induction ([9]; HL60, K562, XPA, data not shown): intact DNA damage protection induction

C=C(C)CCOP(=O)(O)OP(=O)(O)O [IPP, isopentenyl diphosphate]
H2O2-mediated DNA damage [1]: prevented H2O2-mediated DNA damage | potency relative to 2-chloroadenosine [1]: about 100 times | triggering of DNA damage protection [1]: triggered DNA damage-protection signaling | IC50 [1]: 17 pM | pIC50 [1]: 10.77 and ~10.77 | Mechanism of Signal Transduction: FT [2]: − | Mechanism of Signal Transduction: GGT [2]: + | Mechanism of Signal Transduction: Mevalonate Pathway [2]: + | Mechanism of Signal Transduction: PKA [2]: − | Mechanism of Signal Transduction: Proteasome [2]: + | H2O2-induced ROS formation [3]: equivalent inhibition of H2O2-induced ROS formation | ROS generation ([3]; different concentrations, 50 mU/ml GO for thirty minutes, FIG. 3): efficient at blocking ROS generation | DNA damage protection response [6]: responded readily | c[AMP]i over time [7]: did not trigger any meaningful increase | response to antioxidative signaling [8]: all could respond | DNA damage protection induction [9]: intact DNA damage protection induction
